From patent US6380387B1, “4-Pyrimidinyl-n-acyl-l phenylalanines” (Hoffmann-La Roche Inc., priority 1999, dated 2002)

Target: T1, VLA-4 (α4β1 integrin) (Homo sapiens, UniProt P05556+P13612)
T1 construct: Ramos cells bearing cell-surface VLA-4; endogenous in cells; host or cells: Ramos cells
Experiment: Ramos (VLA-4)/VCAM-1 Cell-Based Screening Assay (cell adhesion)
Conditions: Calcein-AM labeled Ramos cells adhering to immobilized recombinant human VCAM-1
Description: Ramos (VLA-4)/VCAM-1 Cell-Based Screening Assay Protocol
Soluble recombinant human VCAM-1 (mixture of 5- and 7-Ig domain) was purified from CHO cell culture media by inmmunoaffinity chromatography and maintained in a solution containing 0.1 M Tris-glycine (pH 7.5), 0.1 M NaCl, 5 mM EDTA, 1 mM PMSF, […] NaN3 and 10 μg/mL leupeptin. Calcein-AM was purchased from Molecular Probes Inc.
VLA-4 (α4β1 integrin) antagonist activity, defined as ability to compete with cell-surface VLA-4 for binding to immobilized VCAM-1, was quantitated using a Ramos-VCAM-1 cell adhesion assay. Ramos cells bearing cell-surface VLA-4, were labeled with a fluorescent dye (Calcein-AM) and allowed to bind VCAM-1 in the presence or absence of test compounds. A reduction in fluorescence intensity associated with adherent cells (% inhibition) reflected competitive inhibition of VLA-4 mediated cell adhesion by the test compound.
Initially, this entailed coating 96 well plates (Nunc Maxisorp) with recombinant human VCAM-1 (100 ng in 100 μl PBS), sealing each plate and allowing the plates to stand at 4° C. for ≈18 hr. The VCAM-coated plates were subsequently washed twice with 0.05% Tween-20 in PBS, and then blocked for 1 hr (room temperature) with 200 μl of Blocking Buffer (1% BSA/0.02% thimerosal) to reduce non-specific binding. Following the incubation with Blocking Buffer, plates were inverted, blotted and the remaining buffer aspirated. Each plate was then washed with 300 μl PBS, inverted and the remaining PBS aspirated.
Test compounds were dissolved in 100% DMSO and then diluted 1:25 in VCAM Cell Adhesion Assay Buffer (4 mM CaCl2, 4 mM MgCl2 in 50 mM TRIS-HCl, pH 7.5) (final DMSO=4%). A series of eight 1:4 dilutions were performed for each compound (general concentration range of 1 nM-12,500 nM). 100 μl/well of each dilution was added to the VCAM-coated plates, followed by 100 μl of Ramos cells (200,000 cells/well in 1% BSA/PBS). Plates containing test compounds and Ramos cells were allowed to incubate for 45 min at room temperature, after which 165 μl/well PBS was added. Plates were inverted to remove non-adherent cells, blotted and 300 μl/well PBS added. Plates were again inverted, blotted and the remaining buffer gently aspirated. 100 μl Lysis Buffer (0.1% SDS in 50 mM TRIS-HCl, pH 8.5) was added to each well and agitated for 2 min on a rotary shaking platform. The plates were then read for fluorescence intensity on a Cytofluor 2300 (Millipore) fluorecence measurement system (excitation=485 nm, emission=530 nm). The results are shown in the following Table II, where (A=IC50<100 nM, B=IC50<10000 nM): […]

T1 sequence (P13612 34-1032): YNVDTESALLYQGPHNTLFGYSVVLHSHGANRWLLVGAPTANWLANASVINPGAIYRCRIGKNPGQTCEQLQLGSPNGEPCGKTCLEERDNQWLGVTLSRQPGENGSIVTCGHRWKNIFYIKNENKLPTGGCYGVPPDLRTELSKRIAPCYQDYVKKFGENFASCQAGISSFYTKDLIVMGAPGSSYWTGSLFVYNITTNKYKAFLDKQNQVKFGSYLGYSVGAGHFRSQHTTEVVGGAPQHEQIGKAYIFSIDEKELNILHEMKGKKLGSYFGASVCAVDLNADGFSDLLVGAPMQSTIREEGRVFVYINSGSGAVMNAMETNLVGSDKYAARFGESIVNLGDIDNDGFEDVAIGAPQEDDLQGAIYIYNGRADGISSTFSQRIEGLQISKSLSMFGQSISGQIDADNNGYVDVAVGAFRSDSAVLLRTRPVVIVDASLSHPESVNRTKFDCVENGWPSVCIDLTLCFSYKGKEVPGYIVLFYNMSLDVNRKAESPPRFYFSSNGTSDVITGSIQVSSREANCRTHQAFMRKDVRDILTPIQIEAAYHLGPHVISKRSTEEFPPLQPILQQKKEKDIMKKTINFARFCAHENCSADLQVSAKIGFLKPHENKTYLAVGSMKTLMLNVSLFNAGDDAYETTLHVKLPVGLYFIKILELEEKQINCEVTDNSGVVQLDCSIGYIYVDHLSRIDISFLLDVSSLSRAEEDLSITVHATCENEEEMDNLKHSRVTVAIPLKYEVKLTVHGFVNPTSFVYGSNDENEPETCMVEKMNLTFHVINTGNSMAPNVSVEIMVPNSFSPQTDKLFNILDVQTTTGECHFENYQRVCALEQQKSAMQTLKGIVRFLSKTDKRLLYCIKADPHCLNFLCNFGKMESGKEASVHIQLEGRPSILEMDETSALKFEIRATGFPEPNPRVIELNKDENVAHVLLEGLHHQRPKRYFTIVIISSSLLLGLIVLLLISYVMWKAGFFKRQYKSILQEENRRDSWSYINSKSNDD
T1 sequence (P05556 21-798): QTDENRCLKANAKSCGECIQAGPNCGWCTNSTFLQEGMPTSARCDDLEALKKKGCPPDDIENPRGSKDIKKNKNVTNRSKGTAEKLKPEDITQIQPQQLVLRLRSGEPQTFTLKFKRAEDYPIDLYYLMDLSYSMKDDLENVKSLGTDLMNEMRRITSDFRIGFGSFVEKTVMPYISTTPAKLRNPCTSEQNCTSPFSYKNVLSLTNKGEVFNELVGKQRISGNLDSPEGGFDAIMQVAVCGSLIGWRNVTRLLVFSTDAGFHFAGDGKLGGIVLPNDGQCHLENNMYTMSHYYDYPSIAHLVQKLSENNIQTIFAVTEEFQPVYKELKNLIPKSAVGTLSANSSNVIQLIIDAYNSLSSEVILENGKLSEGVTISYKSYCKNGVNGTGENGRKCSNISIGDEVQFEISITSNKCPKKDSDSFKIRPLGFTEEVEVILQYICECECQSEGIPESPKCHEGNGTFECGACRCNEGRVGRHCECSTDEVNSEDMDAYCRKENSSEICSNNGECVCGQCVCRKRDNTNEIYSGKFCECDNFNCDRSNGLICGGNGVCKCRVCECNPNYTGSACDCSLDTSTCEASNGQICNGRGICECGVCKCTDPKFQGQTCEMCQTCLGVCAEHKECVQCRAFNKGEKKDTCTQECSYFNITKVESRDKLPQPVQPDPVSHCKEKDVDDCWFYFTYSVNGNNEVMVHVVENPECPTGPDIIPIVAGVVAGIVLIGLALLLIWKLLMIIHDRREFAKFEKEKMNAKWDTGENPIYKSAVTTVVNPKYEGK

Row | IC50 [µM] | Structure (SMILES)
1 | < 0.1 | Cc1cc(C[C@H](NC(=O)c2c(Cl)cccc2Cl)C(=O)O)ccc1-c1cn(C)c(=O)n(C)c1=O [Example 25, N-[(2,6-dichlorophenyl)carbonyl]-4-(1,3-dimethyl-2,4-dioxo-5-pyrimidinyl)-3-methyl-L-phenylalanine]
2 | < 0.1 | Cc1c(-c2ccc(C[C@H](NC(=O)c3c(F)cccc3F)C(=O)O)cc2)c(=O)n(C)c(=O)n1C [Example 12, N-[(2,6-difluorophenyl)carbonyl]-4-(1,3,6-trimethyl-2,4-dioxo-5-pyrimidinyl)-L-phenylalanine]
3 | < 0.1 | Cn1c(C(F)(F)F)c(-c2ccc(C[C@H](NC(=O)c3c(Cl)cccc3Cl)C(=O)O)cc2)c(=O)n(C)c1=O [Example 21, N-[1-(2,6-dichlorophenyl)carbonyl]-4-(1,3-dimethyl-2,4-dioxo-6-(trifluoromethyl)-5-pyrimidinyl)-L-phenylalanine]
4 | < 0.1 | Cc1c(-c2ccc(C[C@H](NC(=O)c3c(F)cccc3C(F)(F)F)C(=O)O)cc2)c(=O)n(C)c(=O)n1C [Example 13, N-[(2-fluoro-6-(trifluoromethyl)phenyl)carbonyl]-4-(1,3,6-trimethyl-2,4-dioxo-5-pyrimidinyl)-L-phenylalanine]
5 | < 0.1 | CCc1cccc(Cl)c1C(=O)N[C@@H](Cc1ccc(-c2c(C)n(C)c(=O)n(C)c2=O)cc1)C(=O)O [Example 15, N-[(2-chloro-6-ethylphenyl)carbonyl]-4-(1,3,6-trimethyl-2,4-dioxo-5-pyrimidinyl)-L-phenylalanine]
6 | < 0.1 | Cc1cccc(Cl)c1C(=O)N[C@@H](Cc1ccc(-c2c(C)n(C)c(=O)n(C)c2=O)cc1)C(=O)O [Example 9, N-[(2-chloro-6-methylphenyl)carbonyl]-4-(1,3,6-trimethyl-2,4-dioxo-5-pyrimidinyl)-L-phenylalanine]
7 | < 0.1 | CCc1cccc(C)c1C(=O)N[C@@H](Cc1ccc(-c2c(C)n(C)c(=O)n(C)c2=O)cc1)C(=O)O [Example 10, N-[(2-ethyl-6-methylphenyl)carbonyl]-4-(1,3,6-trimethyl-2,4-dioxo-5-pyrimidinyl)-L-phenylalanine]
8 | < 10 | Cc1cc(C[C@H](NC(=O)c2c(C)cccc2Cl)C(=O)O)ccc1-c1cn(C)c(=O)n(C)c1=O [Example 24, N-[(2-chloro-6-methylphenyl)carbonyl]-4-(1,3-dimethyl-2,4-dioxo-5-pyrimidinyl)-3-methyl-L-phenylalanine]
9 | < 0.1 | CCn1c(C)c(-c2ccc(C[C@H](NC(=O)c3c(C)cccc3Cl)C(=O)O)cc2)c(=O)n(CC)c1=O [Example 19, N-[(2-chloro-6-methylphenyl)carbonyl]-4-(1,3-diethyl-6-methyl-2,4-dioxo-5-pyrimidinyl)-L-phenylalanine]
10 | < 0.1 | COCCC1(C(=O)N[C@@H](Cc2ccc(-c3c(C)n(C)c(=O)n(C)c3=O)cc2)C(=O)O)CCCC1 [Example 7, N-[[1-(2-methoxyethyl)cyclopentyl]carbonyl]-4-(1,3,6-trimethyl-2,4-dioxo-5-pyrimidinyl)-L-phenylalanine]
11 | < 0.1 | Cc1cccc(C(C)C)c1C(=O)N[C@@H](Cc1ccc(-c2c(C)n(C)c(=O)n(C)c2=O)cc1)C(=O)O [Example 11, N-[[2-(2-methylethyl)-6-methylphenyl]carbonyl]-4-(1,3,6-trimethyl-2,4-dioxo-5-pyrimidinyl)-L-phenylalanine]
12 | < 10 | CCOC(=O)[C@H](Cc1ccc(-c2c(C)n(C)c(=O)n(C)c2=O)cc1)NC(=O)c1c(Cl)cccc1Cl [Example 27, N-[(2,6-dichlorophenyl)carbonyl]-4-(1,3,6-trimethyl-2,4-dioxo-5-pyrimidinyl)-L-phenylalanine ethyl ester]
13 | < 0.1 | CCn1c(C)c(-c2ccc(C[C@H](NC(=O)c3c(Cl)cccc3Cl)C(=O)O)cc2)c(=O)n(CC)c1=O [Example 18, N-[(2,6-dichlorophenyl)carbonyl]-4-(1,3-diethyl-6-methyl-2,4-dioxo-5-pyrimidinyl)-L-phenylalanine]
14 | < 0.1 | Cc1cccc(Cl)c1C(=O)N[C@@H](Cc1ccc(-c2c(C(F)(F)F)n(C)c(=O)n(C)c2=O)cc1)C(=O)O [Example 22, N-[(2-chloro-6-methylphenyl)carbonyl]-4-[1,3-dimethyl-2,4-dioxo-6-(trifluoromethyl)-5-pyrimidinyl]-L-phenylalanine]
15 | < 0.1 | CCCc1cccc(Cl)c1C(=O)N[C@@H](Cc1ccc(-c2c(C)n(C)c(=O)n(C)c2=O)cc1)C(=O)O [Example 16, N-[(2-chloro-6-propylphenyl)carbonyl]-4-(1,3,6-trimethyl-2,4-dioxo-5-pyrimidinyl)-L-phenylalanine]
16 | < 0.1 | Cc1c(-c2ccc(C[C@H](NC(=O)c3c(Cl)cccc3Cl)C(=O)O)cc2)c(=O)n(C)c(=O)n1C [Example 6, N-[(2,6-dichlorophenyl)carbonyl]-4-(1,3,6-trimethyl-2,4-dioxo-5-pyrimidinyl)-L-phenylalanine]
17 | < 0.1 | CCn1c(C)c(-c2ccc(C[C@H](NC(=O)C3(CCOC)CCCC3)C(=O)O)cc2)c(=O)n(CC)c1=O [Example 20, 4-(1,3-diethyl-6-methyl-2,4-dioxo-5-pyrimidinyl)-N-[[1-(2-methoxyethyl)cyclopentyl]carbonyl]-L-phenylalanine]
18 | < 10 | Cc1c(-c2ccc(C[C@H](NC(=O)c3c(C(C)C)cccc3C(C)C)C(=O)O)cc2)c(=O)n(C)c(=O)n1C [Example 14, N-[[2,6-di-(2-methylethyl)phenyl]carbonyl]-4-(1,3,6-trimethyl-2,4-dioxo-5-pyrimidinyl)-L-phenylalanine]
19 | < 0.1 | Cn1c(C(F)(F)F)c(-c2ccc(C[C@H](NC(=O)c3c(F)cccc3C(F)(F)F)C(=O)O)cc2)c(=O)n(C)c1=O [Example 23, N-[[2-fluoro-6-(trifluoromethyl)phenyl]carbonyl]-4-(1,3-dimethyl-2,4-dioxo-6-(trifluoromethyl)-5-pyrimidinyl)-L-phenylalanine]
20 | < 0.1 | Cc1cccc(Br)c1C(=O)N[C@@H](Cc1ccc(-c2c(C)n(C)c(=O)n(C)c2=O)cc1)C(=O)O [Example 8, N-[(2-bromo-6-methylphenyl)carbonyl]-4-(1,3,6-trimethyl-2,4-dioxo-5-pyrimidinyl)-L-phenylalanine]
21 | < 10 | Cc1cc(C[C@H](NC(=O)c2c(Cl)cccc2Cl)C(=O)O)ccc1-c1c(C)n(C)c(=O)n(C)c1=O [Example 26, N-[(2,6-dichlorophenyl)carbonyl]-4-(1,3,6-trimethyl-2,4-dioxo-5-pyrimidinyl)-3-methyl-L-phenylalanine]
